The values below are quoted from earlier work in patent US9988396B2, “Oxaziridine compound and production method thereof” (SEED RESEARCH INSTITUTE CO., LTD., priority 2016, dated 2018).

Each structure is given as a SMILES string.

In data set [1] the test system is PANC-1 pancreas cancer cell.
A further data set concerns pathogens of candidiasis. Particulars: statement in background, from patent document 1 (WO2015/030197).

As to `CC=C(Cc1ccccc1)C12CC(O)CCN1O2` (stereo not drawn) [Kakeromycin], the cytotoxicity result (in data set [1]; in the data set on HepG2 liver cancer cell) was “shows cytotoxicity” in each case. Besides, the “antifungal activity / antibacterial activity against pathogens of candidiasis” value with pathogens of candidiasis is reported as “strong antibacterial activity”.
